According to patent US12336981B2, “Compounds and compositions for the inhibition of NAMPT” (Valo Health, Inc., priority 2010, dated 2025):
Like-named read-outs stand apart in the source and are kept apart here.

Assays:
NAMPT = molecular target: T1, NAMPT (Homo sapiens, UniProt P43490); assay: Biochemical inhibition assay: NAMPT enzymatic reaction, NMN quantified by mass spectrometry; details: read-out: Biochem IC50
T1 construct: His tag; host or cells: E. coli
Method in brief: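 Inhibition of E. coli-expressed His-tagged human NAMPT, measured as NMN formation by mass spectrometry after a 30 min room-temperature reaction containing 1 μM NAM, 100 μM PRPP and 2.5 mM ATP.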

A2780 cells = assay: In-vitro cell proliferation assay (SRB), A2780 cells; format: cell-based; details: Homo sapiens, A2780, 72 h, A2780 cells, 72 hours, read-out: A2780 IC50
Method in brief: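 Cells were plated overnight at 37° C., 5% CO2, then exposed to serially diluted compounds (0.1% DMSO final) for 72 hours. Viable cells were measured by sulforhodamine B staining after TCA fixation, read at 570 nm; media-only background was subtracted before % inhibition was calculated.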

T1 sequence (P43490 whole entry): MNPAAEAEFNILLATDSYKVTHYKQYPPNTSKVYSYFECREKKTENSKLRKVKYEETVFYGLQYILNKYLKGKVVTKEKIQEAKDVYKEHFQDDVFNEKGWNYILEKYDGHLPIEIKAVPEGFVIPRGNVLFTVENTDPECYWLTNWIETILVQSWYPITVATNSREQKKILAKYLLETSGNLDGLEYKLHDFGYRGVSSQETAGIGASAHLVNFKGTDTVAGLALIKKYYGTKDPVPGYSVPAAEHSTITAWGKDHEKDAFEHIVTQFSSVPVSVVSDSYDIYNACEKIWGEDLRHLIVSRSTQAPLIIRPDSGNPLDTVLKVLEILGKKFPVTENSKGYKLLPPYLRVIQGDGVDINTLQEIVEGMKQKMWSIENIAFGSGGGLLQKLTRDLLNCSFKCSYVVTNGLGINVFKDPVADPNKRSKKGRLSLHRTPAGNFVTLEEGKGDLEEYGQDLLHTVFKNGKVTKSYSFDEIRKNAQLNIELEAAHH

SMILES	IC50 (NAMPT; NAMPT enzymatic assay) [nM]	IC50 (A2780 cells; SRB) [nM]	IC50 (NAMPT; NAMPT enzymatic reaction) [nM]	IC50 (A2780 cells; SRB assay) [nM]
O=C(NCc1ccc(S(=O)(=O)c2cccc(C(F)(F)F)c2)cc1)c1cc2ccncc2o1	5.4	4.8	–	–
O=C(NCc1ccc(S(=O)(=O)c2cccc3c2OCO3)cc1)c1cnc2[nH]ncc2c1 [N-{[4-(2H-1,3-benzodioxole-4-sulfonyl)phenyl]methyl}-1H-pyrazolo[3,4-b]pyridine-5-carboxamide]	47	88.4	–	–
O=C(NCc1ccc(S(=O)(=O)c2ccccc2F)cc1)c1cc2ccncc2o1 [N-({4-[(2-fluorobenzene)sulfonyl]phenyl}methyl)furo[2,3-c]pyridine-2-carboxamide]	–	100 to 1000	41.8	–
COc1ccc(Cl)c(S(=O)(=O)c2ccc(CNC(=O)c3cc4ccncc4o3)cc2)c1	–	20.6	2.6	–
Cc1cccc(S(=O)(=O)c2ccc(CNC(=O)c3cc4ccncc4s3)cc2)c1C [N-({4-[(2,3-dimethylbenzene)sulfonyl]phenyl}methyl)thieno[2,3-c]pyridine-2-carboxamide]	11	4.4	–	–
CCOCc1ccc(S(=O)(=O)c2ccc(CNC(=O)c3cc4ccncc4o3)cc2)cc1	4.9	6.6	–	–
CCCOc1cccc(S(=O)(=O)c2ccc(CNC(=O)c3cc4ccncc4s3)cc2)c1	–	12.2	4	–
CCNC(=O)c1ccc(S(=O)(=O)c2ccc(CNC(=O)c3ccc4nccn4c3)cc2)cc1	12	6.3	–	–
Cc1cncc(S(=O)(=O)c2ccc(CNC(=O)c3cnc4[nH]ncc4c3)cc2)n1 [N-{[4-(6-methylpyrazine-2-sulfonyl)phenyl]methyl}-1H-pyrazolo[3,4-b]pyridine-5-carboxamide]	34.9	31.2	–	–
CCCn1cc(S(=O)(=O)c2ccc(CNC(=O)c3cnc4[nH]ncc4c3)cc2)cn1 [N-{[4-(1-propyl-1H-pyrazole-4-sulfonyl)phenyl]methyl}-1H-pyrazolo[3,4-b]pyridine-5-carboxamide]	8	7	–	–
O=C(NCc1ccc(S(=O)(=O)c2ccc(C(F)(F)F)c(Cl)c2)cc1)c1cc2cnccc2[nH]1	13.3	7.7	–	–
CCCCOc1ccc(S(=O)(=O)c2ccc(CNC(=O)c3ccc4nccn4c3)cc2)cc1Cl	–	7.6	4.1	–
COc1cc(C)cc(S(=O)(=O)c2ccc(CNC(=O)c3cnc4nccn4c3)cc2)c1OC	–	15.6	4.2	–
O=C(NCc1ccc(S(=O)(=O)c2cccc(-c3ccccc3)c2)cc1)c1cc2cnccc2[nH]1	–	11.9	2.3	–
O=C(NCc1ccc(S(=O)(=O)c2ccccc2)cc1)c1cnc2nccn2c1 [N-{[4-(benzenesulfonyl)phenyl]methyl}imidazo[1,2-a]pyrimidine-6-carboxamide]	2	57	–	–
CSc1ccc(S(=O)(=O)c2ccc(CNC(=O)c3cc4ccncc4s3)cc2)cc1F	2.2	2	–	–
O=C(NCc1ccc(S(=O)(=O)c2c(Cl)cccc2Cl)cc1)c1cc2ccncc2o1	–	60.1	12.4	–
O=C(NCc1ccc(S(=O)(=O)c2ccccc2CN2CCOCC2)cc1)c1cc2cnccc2[nH]1 [N-[(4-{[2-(morpholin-4-ylmethyl)benzene]sulfonyl}phenyl)methyl]-1H-pyrrolo[3,2-c]pyridine-2-carboxamide]	–	–	34	6
O=C(NCc1ccc(S(=O)(=O)c2cccc(OC(F)F)c2)cc1)c1cnc2nccn2c1	2.1	5	–	–
Cc1ccc(Cl)c(S(=O)(=O)c2ccc(CNC(=O)c3cc4ccncc4o3)cc2)c1Cl	–	16.2	10.8	–
O=C(NCc1ccc(S(=O)(=O)c2ccc(-c3ccccc3)cc2)cc1)c1cc2cnccc2[nH]1 [N-({4-[(4-phenylbenzene)sulfonyl]phenyl}methyl)-1H-pyrrolo[3,2-c]pyridine-2-carboxamide]	–	13.3	31	–
CCOc1cc(Cl)ccc1S(=O)(=O)c1ccc(CNC(=O)c2cc3ccncc3o2)cc1	–	5.1	7.2	–
CCCCOc1ccc(S(=O)(=O)c2ccc(CNC(=O)c3cc4ccncc4s3)cc2)c(C)c1	–	100 to 1000	3.3	–
COc1cc(F)ccc1S(=O)(=O)c1ccc(CNC(=O)c2cnc3[nH]ncc3c2)cc1 [N-({4-[(4-fluoro-2-methoxybenzene)sulfonyl]phenyl}methyl)-1H-pyrazolo[3,4-b]pyridine-5-carboxamide]	–	74.2	159	–
O=C(NCc1ccc(S(=O)(=O)c2cccc(C(=O)N3CCOCC3)c2)cc1)c1cnc2[nH]ncc2c1	124	100 to 1000	–	–

SMILES	IC50 (NAMPT; NAMPT enzymatic assay) [nM]	IC50 (A2780 cells; SRB) [nM]	IC50 (NAMPT; NAMPT enzymatic reaction) [nM]	IC50 (A2780 cells; SRB assay) [nM]
CC(=O)c1ccccc1S(=O)(=O)c1ccc(CNC(=O)c2cc3cnccc3[nH]2)cc1 [N-({4-[(2-acetylbenzene)sulfonyl]phenyl}methyl)-1H-pyrrolo[3,2-c]pyridine-2-carboxamide]	–	–	6	4
CC(C)Oc1cc(F)ccc1S(=O)(=O)c1ccc(CNC(=O)c2ccc3nccn3c2)cc1	22.2	2.1	–	–
CN(C)Cc1ccc(S(=O)(=O)c2ccc(CNC(=O)c3cnc4nccn4c3)cc2)cc1	3.3	24.6	–	–
Cc1cc(Cl)cnc1S(=O)(=O)c1ccc(CNC(=O)c2cc3ccncc3s2)cc1 [N-{[4-(5-chloro-3-methylpyridine-2-sulfonyl)phenyl]methyl}thieno[2,3-c]pyridine-2-carboxamide]	3.9	7.2	–	–
CC(C)c1ccc(S(=O)(=O)c2ccc(CNC(=O)c3cc4ccncc4o3)cc2)cc1	11.9	8	–	–
N#Cc1ccc(S(=O)(=O)c2ccc(CNC(=O)c3cc4ccncc4o3)cc2)cc1 [N-({4-[(4-cyanobenzene)sulfonyl]phenyl}methyl)furo[2,3-c]pyridine-2-carboxamide]	–	30.9	5.3	–
Cc1cc(C(F)(F)F)ccc1S(=O)(=O)c1ccc(CNC(=O)c2cc3ccncc3o2)cc1	34.5	63.1	–	–
Cc1ccccc1S(=O)(=O)c1ccc(CNC(=O)c2ccc3nccn3c2)cc1 [N-({4-[(2-methylbenzene)sulfonyl]phenyl}methyl)imidazo[1,2-a]pyridine-6-carboxamide]	–	91.2	66.9	–
COc1ccc(S(=O)(=O)c2ccc(CNC(=O)c3cnc4[nH]ncc4c3)cc2)c(C(F)(F)F)c1 [N-[(4-{[4-methoxy-2-(trifluoromethyl)benzene]sulfonyl}phenyl)methyl]-1H-pyrazolo[3,4-b]pyridine-5-carboxamide]	86.8	62.8	–	–
O=C(NCc1ccc(S(=O)(=O)c2ccc(Cl)c(F)c2)cc1)c1ccc2nccn2c1 [N-({4-[(4-chloro-3-fluorobenzene)sulfonyl]phenyl}methyl)imidazo[1,2-a]pyridine-6-carboxamide]	–	7.24	7.22	–
CCc1ccccc1S(=O)(=O)c1ccc(CNC(=O)c2cc3cnccc3[nH]2)cc1 [N-({4-[(2-ethylbenzene)sulfonyl]phenyl}methyl)-1H-pyrrolo[3,2-c]pyridine-2-carboxamide]	–	–	5	3
Cc1cccc(S(=O)(=O)c2ccc(CNC(=O)c3cc4ccncc4s3)cc2)c1 [N-({4-[(3-methylbenzene)sulfonyl]phenyl}methyl)thieno[2,3-c]pyridine-2-carboxamide]	–	–	4	2.3
Cc1ccc(S(=O)(=O)c2ccc(CNC(=O)c3cc4cnccc4[nH]3)cc2)cn1 [N-{[4-(6-methylpyridine-3-sulfonyl)phenyl]methyl}-1H-pyrrolo[3,2-c]pyridine-2-carboxamide]	55.7	13	–	–
Cc1cnc(S(=O)(=O)c2ccc(CNC(=O)c3ccc4nccn4c3)cc2)n1C [N-{[4-(1,5-dimethyl-1H-imidazole-2-sulfonyl)phenyl]methyl}imidazo[1,2-a]pyridine-6-carboxamide]	30.9	73.1	–	–
Cc1ccc(S(=O)(=O)c2ccc(CNC(=O)c3ccc4nccn4c3)cc2)cn1 [N-{[4-(6-methylpyridine-3-sulfonyl)phenyl]methyl}imidazo[1,2-a]pyridine-6-carboxamide]	21.5	13.9	–	–
CCOc1cccc(F)c1S(=O)(=O)c1ccc(CNC(=O)c2cc3ccncc3o2)cc1 [N-({4-[(2-ethoxy-6-fluorobenzene)sulfonyl]phenyl}methyl)furo[2,3-c]pyridine-2-carboxamide]	–	28.3	17	–
COc1cc(C)cc(S(=O)(=O)c2ccc(CNC(=O)c3cc4ccncc4o3)cc2)c1OC	–	7	15.2	–
COc1ccc(S(=O)(=O)c2ccc(CNC(=O)c3ccc4nccn4c3)cc2)c(OC)n1 [N-{[4-(2,6-dimethoxypyridine-3-sulfonyl)phenyl]methyl}imidazo[1,2-a]pyridine-6-carboxamide]	43.3	9.2	–	–
Cc1ccc(Cl)cc1S(=O)(=O)c1ccc(CNC(=O)c2cnc3nccn3c2)cc1	–	4.3	3.1	–
CCOc1cc(Cl)ccc1S(=O)(=O)c1ccc(CNC(=O)c2cnc3nccn3c2)cc1	–	4.5	2	–
Cc1ccc(S(=O)(=O)c2ccc(CNC(=O)c3cnc4nccn4c3)cc2)cc1F	–	6.3	2.3	–
O=C(Nc1ccc(CNC(=O)c2cc3cnccc3[nH]2)cc1)c1ccccc1 [N-[(4-benzamidophenyl)methyl]-1H-pyrrolo[3,2-c]pyridine-2-carboxamide]	–	–	19	4
COc1ccc(S(=O)(=O)c2ccc(CNC(=O)c3cc4ccncc4s3)cc2)cc1OC [N-({4-[(3,4-dimethoxybenzene)sulfonyl]phenyl}methyl)thieno[2,3-c]pyridine-2-carboxamide]	–	–	3	0.9
O=C(NCc1ccc(S(=O)(=O)c2ccc(F)c(OCC(F)(F)F)c2)cc1)c1cc2cnccc2[nH]1	10.3	6.5	–	–
